# Tests used:
# [1] = ThT fluorescence assay of fibril formation (physical stability); assay type: physicochemical
# Method: FIG. 1. ThT fluorescence assay of fibril formation in acylated GLP-1 samples. The samples contain 6 mg/ml acylated GLP-1, 5 μM ThT dissolved in water and adjusted to the stated pH. Experimental conditions are described in “Examples”. Briefly, the samples were incubated at 40° C. and shaken with 960 rpm in an Ascent Fluoroskan fluorescence plate reader. All data points are from the same experiment (i.e. all samples are from the same microtiterplate) and are means of eight replica and shown with standard deviations as error bars. Furthermore, these values at 20 and 40 hours are tabulated for each sample.
# Low physical stability of a peptide may lead to amyloid fibril formation, which is observed as well-ordered, thread-like macromolecular structures in the sample eventually resulting in gel formation. This has traditionally been measured by visual inspection of the sample. However, that kind of measurement is very subjective and depending on the observer. Therefore, the application of a small molecule indicator probe is much more advantageous. Thioflavin T (ThT) is such a probe and has a distinct fluorescence signature when binding to fibrils [Naiki et al. (1989) Anal. Biochem. 177, 244-249; LeVine (1999) Methods. Enzymol. 309, 274-284].
# The time course for fibril formation can be described by a sigmoidal curve with the following expression [Nielsen et al. (2001) Biochemistry 40, 6036-6046]:
# Here, F is the ThT fluorescence at the time t (see FIG. 12). The constant t0 is the time needed to reach 50% of maximum fluorescence. The two important parameters describing fibril formation are the lag-time calculated by t0−2τ and the apparent rate constant kapp=1/τ.
# Samples were prepared freshly before each assay. Usually, acylated GLP-1 was dissolved to 6 mg/ml in desired buffer or solvent. The pH of the sample was adjusted to the desired value using appropriate amounts of concentrated NaOH and HClO4. Thioflavin T was added to the samples from a 1 mM stock solution in H2O to a final concentration of 5 μM.
# Sample aliquots of 100 μl were placed in a 96 well microtiter plate (Packard Opti-Plate™-96, white polystyrene). Usually, eight replica of each sample (corresponding to one test condition) was placed in one column of wells. The plate was sealed with Scotch Pad (Qiagen).
# Incubation at given temperature, shaking and measurement of the ThT fluorescence emission were done in a Fluoroskan Ascent FL fluorescence platereader (Thermo Labsystems). Temperature setting is possible up till 45° C., but usually sat at 40° C. The orbital shaking is selectable up till 1200 rpm, but adjusted to 960 rpm with an amplitude of 1 mm in all the presented data. Fluorescence measurement was done using excitation through a 444 nm filter and measurement of emission through a 485 nm filter.
# Each run was initiated by incubating the plate at the assay temperature for 10 min. The plate was measured each hour for typically 45 hours. Between each measurement, the plate was shaken and heated as adjusted.
# The measurement points were saved in Microsoft Excel format for further processing and curve drawing and fitting was performed using GraphPad Prism. The background emission from ThT in the absence of fibrils was negligible. The data points are typically a mean of eight samples and shown with standard deviation error bars. Only data obtained in the same experiment (i.e. samples on the same plate) are presented in the same graph ensuring a relative measure of fibrillation between experiments.
# The data set may be fitted to Eq. (1). However, since full sigmodial curves in this case are not usually achieved during the measurement time, the degree of fibrillation is expressed as ThT fluorescence at 20 and 40 hours, calculated as the mean of the eight samples and shown with the standard deviation.
# [2] = Proton NMR spectroscopy of solvent and buffer effects on structure and dynamics in solution; assay type: physicochemical
# Method: FIG. 10. Proton NMR spectrum of acylated GLP-1 with different additives at pH 7.9. N-terminal histidine signals of the imidazol sidechain are observed at approx 7.80 ppm and 7.00 ppm. The linewidth and position reflects the reduced flexibility of the N-terminal. NMR samples were prepared with 6 mg/ml acylated GLP-1 at pH 7.9 dissolved in 90%/10% H2O/D2O. NMR spectra were recorded at 600 MHz using a Varian Inova 600 MHz NMR instrument using 5 mm samples tubes. Sample volumes were 800 ul and spectra were measured at 27 degrees Celsius
# FIG. 11. Amide protons of glu-9 (8.65 ppm) and gly-10 (8.42 ppm) under the same conditions as in FIG. 10. More intense amide proton signals reflect that these protons are relatively better shielded structurally from exchange with the water.
# Proton NMR spectroscopy of proteins in solutions has become a powerful technique to study structure and dynamics of a pure protein in solution (Wüthrich, K, “NMR of Proteins and Nucleic Acids”, (1986), ISBN 0-471-82893-9). Each proton (or proton group) in a protein will give rise to a resonance peak at a frequency which depends on the chemical and physical environment in the vicinity of each proton (or proton group) in the protein. A skilled artisan in the field of protein NMR spectroscopy will be able to assign most of the resonance peaks of a proton NMR spectrum of a protein to specific protons (or proton groups) in the protein given that the actual behavior of the protein in solution give rise to a well resolved proton NMR spectrum (well known to the skilled artisan in the field). The line width of the resonance peaks in the protein NMR spectrum reflects to some extend the size and dynamic properties of the protein in solution.
# Aqueous solution of acylated GLP-1 at concentrations between 1 and 30 mg/ml, with or without buffers in the pH range 7.0 to 8.2 give rise to NMR spectra that to a high extend allow the afore mentioned resonance assignment. Thus several resonances of the NMR spectrum of this peptide can be assigned to specific atomic groups in the peptide. Recording NMR spectra of acylated GLP-1 under the conditions mentioned above but with different buffer substances in the solution allows a direct comparison of the structural and dynamical changes that acylated GLP-1 undergo as different buffers are applied.
substance,measurement,setting,value
"Arg^34, Lys^26(N^ε-(γ-Glu(N^α-hexadecanoyl)))-GLP-1(7-37) [acylated GLP-1]",fibril formation,"[1]; 8 mM phosphate, pH8.15",fibril formation is already observed
same,fibrillation,[1]; 10 mM BICINE buffer,without significantly increasing the fibrillation compared to water at pH7.89
same,fibrillation,[1]; 10 mM HEPES buffer,without significantly increasing the fibrillation compared to water at pH7.89
same,physical stability,[1]; 10 mM HEPES pH7.73,as physically stable as in 8 mM phosphate pH8.15
same,physical stability,"[1]; 10 mM HEPES, pH gradually lowered from pH7.9 to pH7.51",slightly more physically unstable
same,physical stability,"[1]; 10 mM His, lowering the pH",only marginally less stable
same,physical stability,"[1]; 10 mM His, pH 7.5",much more physically stable than acylated GLP-1 in non buffered aqueous solution pH7.5
same,physical stability,"[1]; 10 mM His, pH7.9",same physical stability of acylated GLP-1 as obtained in water at pH7.9
same,physical stability,[1]; 10 mM MOPS,more physical stable than a solution in 8 mM phosphate at pH8.14
same,fibrillation,[1]; 10 mM NaCl added to solution in water pH 7.9,promotes fibrillation
same,physical stability,[1]; 10 mM TES,more physical stable than a solution in 8 mM phosphate at pH8.14
same,physical stability,"[1]; aqueous solution non buffered or buffered with HEPES or BICINE, versus 8 mM phosphate pH7.92",significantly more physically stable
same,physical stability,"[1]; dissolved in water rather than phosphate buffer (8 mM), 6 mg/ml, 40° C., 960 rpm",significant increase in physical stability
same,fibrillation lag-time,"[1]; lowering pH in the interval pH 8.2 to pH 7.5, all examples",shorter and shorter fibrillation lag-times
same,tendency to fibril formation,[1]; phosphate lowered from 8 mM to 1 mM at pH7.9,Less tendency to fibril formation
same,fibrillation,"[1]; water adjusted to pH7.85, incubated 45 hours",No significant fibrillation
same,fibrillation,"[1]; water adjusted to pH8.14, incubated 45 hours",No significant fibrillation
same,physical stability,[1]; water at pH7.53,comparable with 8 mM phosphate pH7.88
same,amide proton resonances of glutamic acid residue 9 and glycine residue 10,"[2]; 8 mM phosphate at pH 7.9 compared to non-buffered, 6 mg/ml",almost disappearance of amides protons resonances
same,protection of amide protons of Glu 9 and Gly 10 from water,[2]; aqueous solution without buffer substance versus 8 mM phosphate buffer,relatively more protected from the water molecules
same,self-assembly in solution,[2]; concentration range 1 to 30 mg/ml,bundle up in assemblies with several but well defined and limited number of acylated GLP-1 molecules
same,order and rigidity of the N-terminal,"[2]; non buffered solution or buffered with HEPES, bicine or histidine, pH 7.9",more ordered and rigid

# From patent publication US20100190715A1, “Stable Formulations of Peptides” (Novo Nordisk A/S, priority 2003, published 2010)
